Experimental data as given in US11352339B2 (MISSION THERAPEUTICS LIMITED, priority 2016, dated 2022).

Molecular target: USP30 (Homo sapiens (Human), UniProt Q70CQ3)
Test: USP30 Biochemical IC50 Assay
Settings: fluorescence polarisation, TAMRA labelled peptide linked to ubiquitin; 30 min pre-incubation, read after 2 h; read-out: IC50 range
Protocol: Reactions were performed in duplicate in black 384 well plates (small volume, Greiner 784076) in a final reaction volume of 21 μl. Either 1 μl of 50% DMSO or diluted compound was added to the plate. […] Enzyme and compound were incubated for 30 min at room temp. Reactions were initiated by the addition of 50 nM of TAMRA labelled peptide linked to ubiquitin via an iso-peptide bond as fluorescence polarisation substrate. Reactions were read immediately after addition of substrate and following a 2 h incubation at room temperature. Readings were performed on a Pherastar Plus (BMG Labtech). λ Excitation 540 nm; λ Emission 590 nm.

Sequence of USP30 (Q70CQ3 57-517): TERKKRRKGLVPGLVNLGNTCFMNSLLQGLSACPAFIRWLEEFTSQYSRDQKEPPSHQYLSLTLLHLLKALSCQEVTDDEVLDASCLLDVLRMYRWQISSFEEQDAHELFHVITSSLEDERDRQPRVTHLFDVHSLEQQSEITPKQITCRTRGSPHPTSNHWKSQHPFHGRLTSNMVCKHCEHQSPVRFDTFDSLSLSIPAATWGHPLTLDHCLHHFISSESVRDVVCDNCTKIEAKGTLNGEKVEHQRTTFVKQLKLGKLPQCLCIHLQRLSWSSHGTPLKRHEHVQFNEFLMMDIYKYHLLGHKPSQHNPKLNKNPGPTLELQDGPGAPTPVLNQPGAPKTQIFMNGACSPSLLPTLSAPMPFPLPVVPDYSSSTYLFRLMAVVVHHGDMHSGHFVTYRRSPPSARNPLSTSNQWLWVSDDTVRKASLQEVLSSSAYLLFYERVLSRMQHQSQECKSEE

IC50 | Compound
1 to 10 µM | N#CN1CCC(c2nc3ccc(-c4ccccc4)nc3[nH]2)C1 (centres unmarked) [Example 97, 3-(5-Phenyl-3H-imidazo[4,5-b]pyridin-2-yl)pyrrolidine-1-carbonitrile]
< 0.1 µM | N#Cc1cc(F)cc(-c2cccc(-c3nc(C4CCCN4C#N)no3)c2)c1 (centres unmarked) [Example 163, 2-(5-(3′-Cyano-5′-fluoro-[1,1′-biphenyl]-3-yl)-1,2,4-oxadiazol-3-yl)pyrrolidine-1-carbonitrile]
1 to 10 µM | N#CN1CCC(c2nc3cc(-c4cn[nH]c4)cnc3[nH]2)C1 (centres unmarked) [Example 88, 3-(6-(1H-Pyrazol-4-yl)-3H-imidazo[4,5-b]pyridin-2-yl)pyrrolidine-1-carbonitrile]
0.1 to 1 µM | N#Cc1ccc(-c2cnc3[nH]c(C4CCN(C#N)C4)nc3c2)cc1 (single isomer, unassigned) [Example 91, 3-(6-(4-Cyanophenyl)-3H-imidazo[4,5-b]pyridin-2-yl)pyrrolidine-1-carbonitrile]
1 to 10 µM | Cc1cc(-c2cc(C3CCN(C#N)C3)[nH]n2)ccn1 (centres unmarked) [Example 11, 3-(3-(2-Methylpyridin-4-yl)-1H-pyrazol-5-yl)pyrrolidine-1-carbonitrile]
< 0.1 µM | C[C@H]1CN(C#N)C[C@@H]1c1[nH]nc(-c2cccc(-c3ccccc3)c2)c1F [Example 22]
0.1 to 1 µM | N#CN1CCC(c2cc(-c3cccc(-c4cccnc4)c3)n[nH]2)C1 (centres unmarked) [Example 26, 3-(3-(3-(Pyridin-3-yl)phenyl)-1H-pyrazol-5-yl)pyrrolidine-1-carbonitrile]
1 to 10 µM | N#CN1CCC(c2noc(-c3ccc(N4CCOCC4)cc3)n2)C1 (centres unmarked) [Example 61, 3-(5-(4-Morpholinophenyl)-1,2,4-oxadiazol-3-yl)pyrrolidine-1-carbonitrile]
1 to 10 µM | N#CN1CCC(c2nnc(-c3ccccc3)[nH]2)C1 (centres unmarked) [Example 106, 3-(5-Phenyl-4H-1,2,4-triazol-3-yl)pyrrolidine-1-carbonitrile]
0.1 to 1 µM | N#CN1CCC(c2cccc(-c3ccccc3)c2N)C1 (centres unmarked) [Example 123, 3-(2-Amino-[1,1′-biphenyl]-3-yl)pyrrolidine-1-carbonitrile]
0.1 to 1 µM | COc1cc(-c2nc([C@@H]3CCN(C#N)C3)no2)ccc1-c1cnn(C)c1 [Example 71, (R)-3-(5-(3-Methoxy-4-(1-methyl-1H-pyrazol-4-yl)phenyl)-1,2,4-oxadiazol-3-yl)pyrrolidine-1-carbonitrile]
0.1 to 1 µM | N#CN1CCC(c2n[nH]c(-c3ccnc(-c4ccccc4)c3)n2)C1 (centres unmarked) [Example 199, 3-(3-(2-Phenylpyridin-4-yl)-1H-1,2,4-triazol-5-yl)pyrrolidine-1-carbonitrile]
1 to 10 µM | Cc1cncc(-c2cccc(-c3nc(C4CCCN4C#N)no3)c2)c1 (centres unmarked) [Example 164, 2-(5-(3-(5-Methylpyridin-3-yl)phenyl)-1,2,4-oxadiazol-3-yl)pyrrolidine-1-carbonitrile]
0.1 to 1 µM | COC(=O)c1ccccc1-c1cccc(-c2nc(C3CCCN3C#N)no2)c1 (centres unmarked) [Example 156, Methyl 3′-(3-(1-cyanopyrrolidin-2-yl)-1,2,4-oxadiazol-5-yl)-[1,1′-biphenyl]-2-carboxylate]
< 0.1 µM | N#CN1CCC(c2cc(-c3cccc(-c4ccccc4)c3)no2)C1 (centres unmarked) [Example 117, 3-(3-([1,1′-Biphenyl]-3-yl)isoxazol-5-yl)pyrrolidine-1-carbonitrile]
0.1 to 1 µM | Cn1ncc2cc(-c3cccc(-c4nc(C5CCCN5C#N)no4)c3)ccc21 (centres unmarked) [Example 151]
1 to 10 µM | N#CN1CCC(c2noc(-c3ccc(-c4ccccc4)[nH]c3=O)n2)C1 (centres unmarked) [Example 52, 3-(5-(2-Oxo-6-phenyl-1,2-dihydropyridin-3-yl)-1,2,4-oxadiazol-3-yl)pyrrolidine-1-carbonitrile]
1 to 10 µM | N#Cc1cnn(-c2ccnc(-c3nc([C@@H]4CCCN4C#N)no3)c2)c1 [Example 191, (S)-1-(2-(3-(1-Cyanopyrrolidin-2-yl)-1,2,4-oxadiazol-5-yl)pyridin-4-yl)-1H-pyrazole-4-carbonitrile]
0.1 to 1 µM | N#Cc1ccc(C2CN(c3noc(C4CCN(C#N)C4)n3)C2)cc1 (centres unmarked) [Example 198, 3-(3-(3-(4-Cyanophenyl)azetidin-1-yl)-1,2,4-oxadiazol-5-yl)pyrrolidine-1-carbonitrile]
1 to 10 µM | C[C@@H]1CN(C#N)C[C@H]1c1nc(-c2ccccc2)n[nH]1 (relative stereo) [Example 113, Trans 3-methyl-4-(3-phenyl-1H-1,2,4-triazol-5-yl)pyrrolidine-1-carbonitrile]
0.1 to 1 µM | N#Cc1ccc(-c2cnc3[nH]c(C4CCN(C#N)C4)nc3c2)cc1 (centres unmarked) [Example 84, 3-(6-(4-Cyanophenyl)-3H-imidazo[4,5-b]pyridin-2-yl)pyrrolidine-1-carbonitrile]
0.1 to 1 µM | N#CN1CCC(c2nc3cc(-c4ccncc4)cnc3[nH]2)C1 (single isomer, unassigned) [Example 81, 3-(6-(Pyridin-4-yl)-3H-imidazo[4,5-b]pyridin-2-yl)pyrrolidine-1-carbonitrile]

IC50 | Compound
0.1 to 1 µM | N#CN1CCC(c2cc(-c3ccc4ccccc4c3)n[nH]2)C1 (centres unmarked) [Example 18, 3-(3-(Naphthalen-2-yl)-1H-pyrazol-5-yl)pyrrolidine-1-carbonitrile]
0.1 to 1 µM | N#CN1CCC(c2nc3cc(-c4ccccc4)cnc3[nH]2)C1 (centres unmarked) [Example 83, 3-(6-Phenyl-3H-imidazo[4,5-b]pyridin-2-yl)pyrrolidine-1-carbonitrile]
0.1 to 1 µM | N#Cc1ccc(-c2nccc(-c3nc([C@@H]4CCCN4C#N)no3)n2)cc1 [Example 185, (S)-2-(5-(2-(4-Cyanophenyl)pyrimidin-4-yl)-1,2,4-oxadiazol-3-yl)pyrrolidine-1-carbonitrile]
0.1 to 1 µM | N#Cc1cccc(-c2ccc3nc(C4CCN(C#N)C4)[nH]c3c2)c1 (centres unmarked) [Example 72, 3-(6-(3-Cyanophenyl)-1H-benzo[d]imidazol-2-yl)pyrrolidine-1-carbonitrile]
0.1 to 1 µM | N#CN1CCC[C@H]1c1nc(-c2cccc(-c3ccccc3)c2)no1 [Example 141, (S)-2-(3-([1,1′-Biphenyl]-3-yl)-1,2,4-oxadiazol-5-yl)pyrrolidine-1-carbonitrile]
0.1 to 1 µM | N#CN1CCC[C@H]1c1nc2cc(-c3cccc(OC(F)(F)F)c3)ccc2o1 [Example 133, (S)-2-(5-(3-(Trifluoromethoxy)phenyl)-benzo[d]oxazol-2-yl)pyrrolidine-1-carbonitrile]
1 to 10 µM | N#CN1CCCC1c1nnc(-c2cccc(-c3ccccc3)c2)o1 (centres unmarked) [Example 140, 2-(5-([1,1′-Biphenyl]-3-yl)-1,3,4-oxadiazol-2-yl)pyrrolidine-1-carbonitrile]
0.1 to 1 µM | N#Cc1cccc(-c2cc(C3CCN(C#N)C3)[nH]n2)c1 (centres unmarked) [Example 1, 3-(3-(3-Cyanophenyl)-1H-pyrazol-5-yl)pyrrolidine-1-carbonitrile]
0.1 to 1 µM | C[C@@H]1CN(C#N)C[C@H]1c1cc(-c2cccc(-c3ccccc3)c2)n[nH]1 (relative stereo) [Example 19, Trans-3-(3-([1,1′-biphenyl]-3-yl)-1H-pyrazol-5-yl)-4-methylpyrrolidine-1-carbonitrile]
0.1 to 1 µM | N#CN1CCC(c2cc(-c3ccnc(-c4ccccc4)c3)[nH]n2)C1 (centres unmarked) [Example 38, 3-(5-(2-Phenylpyridin-4-yl)-1H-pyrazol-3-yl)pyrrolidine-1-carbonitrile]
1 to 10 µM | Cn1nccc1-c1cccc(-c2nc(C3CCCN3C#N)no2)c1 (centres unmarked) [Example 143, 2-(5-(3-(1-Methyl-1H-pyrazol-5-yl)phenyl)-1,2,4-oxadiazol-3-yl)pyrrolidine-1-carbonitrile]
< 0.1 µM | N#CN1CCC(c2n[nH]c(-c3cccc(-c4ccccc4)c3)n2)C1 (centres unmarked) [Example 111, 3-(3-([1,1′-Biphenyl]-3-yl)-1H-1,2,4-triazol-5-yl)pyrrolidine-1-carbonitrile]
0.1 to 1 µM | N#Cc1cc(-c2cc(-c3nc([C@@H]4CCCN4C#N)no3)cnn2)ccn1 [Example 204, (S)-4-(5-(3-(1-Cyanopyrrolidin-2-yl)-1,2,4-oxadiazol-5-yl)pyridazin-3-yl)picolinonitrile]
0.1 to 1 µM | N#CN1CCC(c2cc(-c3cccc(N4CCCCC4)c3)n[nH]2)C1 (centres unmarked) [Example 12, 3-(3-(3-(Piperidin-1-yl)phenyl)-1H-pyrazol-5-yl)pyrrolidine-1-carbonitrile]
1 to 10 µM | CC(=O)Nc1cccc(-c2cc(C3CCN(C#N)C3)[nH]n2)c1 (centres unmarked) [Example 7, N-(3-(5-(1-Cyanopyrrolidin-3-yl)-1H-pyrazol-3-yl)phenyl)acetamide]
1 to 10 µM | N#Cc1ccc(-c2cc(C3CCN(C#N)C3)[nH]n2)cc1 (centres unmarked) [Example 2, 3-(3-(4-Cyanophenyl)-1H-pyrazol-5-yl)pyrrolidine-1-carbonitrile]
0.1 to 1 µM | N#CN1CCC(c2nc3cc(-c4ccccc4)ccc3[nH]2)C1 (centres unmarked) [Example 95, 3-(5-Phenyl-1H-benzo[d]imidazol-2-yl)pyrrolidine-1-carbonitrile]
0.1 to 1 µM | C[C@H]1CN(C#N)C[C@@H]1c1[nH]nc(-c2cccc(-c3ccccc3)c2)c1F [Example 23]
1 to 10 µM | CNC(=O)c1cccc(-c2cnc3[nH]c(C4CCN(C#N)C4)nc3c2)c1 (single isomer, unassigned) [Example 92, 3-(2-(1-Cyanopyrrolidin-3-yl)-3H-imidazo[4,5-b]pyridin-6-yl)-N-methylbenzamide]
0.1 to 1 µM | N#CN1CCC(c2nc3ccc(-c4ccc(C(=O)NCc5ccccc5)cc4)cc3[nH]2)C1 (centres unmarked) [Example 79, N-Benzyl-4-(2-(1-cyanopyrrolidin-3-yl)-1H-benzo[d]imidazol-6-yl)benzamide]
0.1 to 1 µM | N#CN1CCC(c2nc3ccc(-c4ccccc4OCc4ccccc4)cc3[nH]2)C1 (centres unmarked) [Example 73, 3-(6-(2-(Benzyloxy)phenyl)-1H-benzo[d]imidazol-2-yl)pyrrolidine-1-carbonitrile]

Compound | IC50
N#CN1CCC(c2cc(-c3ccc(-c4ccccc4)nc3)n[nH]2)C1 (centres unmarked) [Example 40] | 0.1 to 1 µM
